# Test results reported in PubChem BioAssay AID179 (DTP/NCI, 2004).
# The source made the active and inactive calls.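 How the source made its calls: active means compounds giving half or more protection of infected cells from virus-caused growth loss, again on retest; inactive means the rest.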
# Test system: CEM cells HIV-1 protection, formazan growth assay
# Assay: NCI AIDS Antiviral Assay
# Conditions: for IC50: measured here: growth of uninfected CEM cells
# Outline: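 Steps: treat uninfected and HIV-1-infected human CEM cells at five drug levels; quantify growth by soluble formazan; retest any compound reaching 50% protection; classify actives from the retest.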
SMILES,EC50,IC50,outcome
O=C(c1cc2ccccc2[nH]1)C(O)(c1cc2ccccc2[nH]1)c1cc2ccccc2[nH]1,> 9.33 µM,> 9.33 µM,–
O=c1oc2ccccc2c(O)c1C1=N/C(=N/N=C/c2ccc(Cl)cc2)SC1,> 200 µM,> 200 µM,–
COC(=O)/C(C#N)=C(\Nc1ccccc1)N1CCOCC1,> 200 µM,> 200 µM,–
CC(=O)c1ccc([Se][Se]c2ccc(C(C)=O)cc2)cc1,> 18.2 µM,3.72 µM,–
CC1(C#N)N(C(=O)c2ccccc2)c2ccccc2N1C(=O)c1ccccc1,–,–,inactive
O=[N+]([O-])c1ccc2nc3n(c2c1)C(c1c(F)cccc1F)SC3 (stereo unspecified),> 200 µM,> 200 µM,–
Cn1c(=O)c2nc3sc4ccccc4c(=N)n3c2n(C)c1=O,> 41.7 µM,> 41.7 µM,–
CC(=O)n1c2c(c(=O)n1-c1ccccc1)S(=O)CCC2 (stereo unspecified),> 123 µM,89.1 µM,–
O=C(NC1CCCCC1)c1n[nH]nc1Cl,> 200 µM,> 200 µM,–
CCCCCCCC(=O)OC[C@H](C[As](=O)(O)O)OC(=O)CCCCCCC,> 200 µM,7.76 µM,–
COc1ccc2[nH]c(C)cc2c1CN,> 575 µM,120 µM,–
Cc1cccc(C(O)c2cccnc2)c1O (stereo unspecified),> 200 µM,> 200 µM,–
O=C(O)c1cc(O)c2c(c1)C(=O)c1cc(O)cc(O)c1C2=O,–,–,inactive
CN(C)c1ccc(/C=C2\C=Cc3ccccc32)c(F)c1,> 14.1 µM,> 14.1 µM,–
CCCSc1nc(COC(=O)NC)c(COC(=O)NC)n1C,> 200 µM,83.2 µM,–
CN(C)CCc1c2c(nc3ccccc13)C(=O)c1ccccc1C2=O,> 200 µM,0.933 µM,–
COc1ccc(OC(C(=O)O)c2ccccc2)c2c1CCCC2=O (stereo unspecified),–,–,inactive
Cn1c(=O)c2c(nc3sc4c(n32)C(=O)c2c(O)ccc(O)c2C4=O)n(C)c1=O,0.2 µM,0.257 µM,–
COc1ccccc1NC(=O)C1=C(C)NC(C)=C(C(=O)Nc2ccccc2OC)C1c1ccc(C2C(C(=O)Nc3ccccc3OC)=C(C)NC(C)=C2C(=O)Nc2ccccc2OC)cc1,> 1.62 µM,> 1.62 µM,–
NN=C(CC(O)(C(F)(F)Cl)C(F)(F)Cl)CC(O)(C(F)(F)Cl)C(F)(F)Cl,> 200 µM,6.92 µM,–
N#Cc1c(N2CCCC2)ncn(-c2ccccc2)c1=O,> 200 µM,> 200 µM,–
C[C@H](CCc1nc(C#N)c(N)o1)[C@H]1CC[C@H]2[C@@H]3[C@@H](O)CC4C[C@@H](O)CC[C@]4(C)[C@H]3C[C@@H](O)[C@]12C (stereo partly specified),> 200 µM,16.6 µM,–

SMILES,EC50,IC50,outcome
COc1ccccc1NC(=O)CC(=O)N1N=C(C)C(N=Nc2ccc(C(=O)O)cc2)C1=O (stereo unspecified),> 200 µM,> 200 µM,–
O=C1N/C(=C\c2ccccc2)C(=O)N1CN1CCCC1,> 200 µM,115 µM,–
[Ni+2].c1nnc(N2CNCCNCN(c3nnc[n-]3)CNCCNC2)[n-]1,> 100 µM,97.7 µM,–
Cc1cn(C2CC(SCCO)C(CO)O2)c(=O)[nH]c1=O (stereo unspecified),> 200 µM,> 200 µM,–
N#CC1=C(O)NC(O)=C(C#N)C1c1ccc(Cl)cc1Cl,> 17 µM,> 17 µM,–
CCOC(=O)NC1C2CC(=O)OC(O2)C1OC(C)=O (stereo unspecified),> 912 µM,39.8 µM,–
COc1ccc(-c2cc(-c3ccc4c(c3)CC(C)O4)nc(N)n2)cc1 (stereo unspecified),> 30.2 µM,20 µM,–
CNCCCC1c2ccccc2C=Cc2ccccc21,> 200 µM,37.2 µM,–
COc1ccc(CCNC(=S)/N=C/C2=C(O)CC(C)(C)CC2=O)cc1OC,> 200 µM,> 200 µM,–
CCOC(=O)C(NC(=O)CC)(Nc1ccc(S(=O)(=O)Nc2ccc(OC)nn2)cc1)C(F)(F)F (stereo unspecified),> 200 µM,> 200 µM,–
NC(=O)Nc1cc(O)ccc1N=Nc1ccc(S(=O)(=O)Nc2ccccn2)cc1,> 87.1 µM,> 87.1 µM,–
CC1(O)OC(=O)C2=C1CCC1C2CCC2(C)C(O)CCC12 (stereo unspecified),> 200 µM,> 200 µM,–
Cc1cnc(SCCN2CCN(C)CC2)nc1-c1cc2ccccc2s1,> 646 µM,1.29 µM,–
COc1cc(N=Nc2cc(NC(C)=O)c(N=Nc3ccc(C(=O)O)cc3)cc2S(=O)(=O)O)c(C)cc1N=Nc1ccc(NC(=O)c2ccc(N)cc2)cc1C,14.1 µM,> 100 µM,–
Cc1ccccc1-c1cc(=O)c2cc(C)c(C)c(C(=O)O)c2o1,–,–,inactive
CN(C)c1ccc(/C=C(\NC(=O)c2ccccc2)c2nc3ncncc3[nH]2)cc1,–,–,inactive
OCCN(/N=C\c1ccc2ccccc2c1)C1=NCCN1,> 200 µM,31.6 µM,–
CC#COS(=O)(=O)c1ccc(C)cc1,> 251 µM,110 µM,–
N/N=C(\Cc1ccccc1)NN=C(N)N,> 457 µM,389 µM,–
Cc1sc2c(c1C)/C(=N\O)c1cccn1-2,> 200 µM,41.7 µM,–
Cn1cnc([N+](=O)[O-])c1Sc1nc2ccc([N+](=O)[O-])cc2[nH]1,> 81.3 µM,7.76 µM,–
